How the values were obtained:
[1] = tested on: A375 cells; experiment: A375 Cell Proliferation Assay (2); assay type: cell-based; conditions: Homo sapiens, A-375
[2] = target: B-Raf (V600E) (SEQ. ID NO: 4) kinase (Homo sapiens (Human), UniProt P15056, V600E); experiment: Biochemical Assay for B-Raf (V600E) (2); conditions: Table J, BRAF V600E, biochemical assay (2); read-out: BRAF VE (2)
Protocol: Biochemical Assay for B-Raf (V600E) (2)
Activity of B-Raf (V600E) (SEQ. ID NO: 4) kinase was determined spectroscopically using a coupled pyruvate kinase/lactate dehydrogenase assay that continuously monitors the ATP hydrolysis-dependent oxidation of NADH (e.g., Schindler et al., Science, 2000, 289, 1938-1942). Assays were conducted in 384-well plates (25 μL final volume) using 0.5 nM B-Raf (deCode), 1.5 units pyruvate kinase, 2.1 units lactate dehydrogenase, 1 mM phosphoenol pyruvate, 0.7 mM NADH, 100 nM MEK (SignalChem), and 1 mM ATP in assay buffer (100 mM Tris, pH 7.5, 15 mM MgCl2, 0.5 mM DTT, 0.1% octyl-glucoside, 0.002% (w/v) BSA, and 0.002% Triton X-100). Inhibition of B-Raf (V600E) was measured by adding serial diluted test compound (final assay concentration of 1% DMSO). A decrease in absorption at 340 nm was monitored hourly for 4 h at 30° C. on a multi-mode microplate reader (BioTek). The reaction rate was calculated using the 3 to 4 h time frame. The reaction rate at each concentration of compound was converted to percent inhibition using controls (i.e., reaction with no test compound and reaction with a known inhibitor) and IC50 values were calculated by fitting a four-parameter sigmoidal curve to the data using Prism (GraphPad software).

[3] = target: B-Raf kinase (SEQ. ID NO: 2) (Homo sapiens (Human), UniProt P15056); experiment: Biochemical Assay for B-Raf (2); conditions: Table J, biochemical assay (2); read-out: BRAF (2)
B-Raf kinase (SEQ. ID NO: 2), sequence (P15056 416-766): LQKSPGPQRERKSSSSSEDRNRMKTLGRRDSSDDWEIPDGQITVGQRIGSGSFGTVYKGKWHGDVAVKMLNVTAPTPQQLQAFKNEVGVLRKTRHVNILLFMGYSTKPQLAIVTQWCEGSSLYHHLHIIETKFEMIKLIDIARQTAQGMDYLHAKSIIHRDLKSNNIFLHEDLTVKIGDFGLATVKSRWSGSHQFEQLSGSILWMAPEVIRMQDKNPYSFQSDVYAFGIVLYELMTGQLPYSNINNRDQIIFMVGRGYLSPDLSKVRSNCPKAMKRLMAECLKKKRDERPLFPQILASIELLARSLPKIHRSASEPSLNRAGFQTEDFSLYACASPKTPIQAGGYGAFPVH
Protocol: Biochemical Assay for B-Raf (2)
Activity of B-Raf kinase (SEQ. ID NO: 2) was determined spectroscopically using a coupled pyruvate kinase/lactate dehydrogenase assay that continuously monitors the ATP hydrolysis-dependent oxidation of NADH (e.g., Schindler et al., Science, 2000, 289, 1938-1942). Assays were conducted in 384-well plates (25 μL final volume) using 2 nM B-Raf (Sigma), 1.5 units pyruvate kinase, 2.1 units lactate dehydrogenase, 1 mM phosphoenol pyruvate, 0.7 mM NADH, 50 nM MEK (SignalChem), and 1 mM ATP in assay buffer (100 mM Tris, pH 7.5, 15 mM MgCl2, 0.5 mM DTT, 0.1% octyl-glucoside, 0.002% (w/v) BSA, and 0.002% Triton X-100). Inhibition of B-Raf was measured by adding serial diluted test compound (final assay concentration of 1% DMSO). A decrease in absorption at 340 nm was monitored hourly for 4 h at 30° C. on a multi-mode microplate reader (BioTek). The reaction rate was calculated using the 2 to 3 h time frame. The reaction rate at each concentration of compound was converted to percent inhibition using controls (i.e., reaction with no test compound and reaction with a known inhibitor) and IC50 values were calculated by fitting a four-parameter sigmoidal curve to the data using Prism (GraphPad software).

[4] = tested on: WM3928 cells; experiment: WM3928 Cell Proliferation Assay (2); assay type: cell-based
Protocol: WM3928 Cell Proliferation Assay (2)
WM3928 cells (#WM3928-01-0001) are obtained from Rockland Immunochemicals Inc (Gilbertsville, PA). Briefly, cells were grown in MCDB 153 medium (Sigma, #M7403, St. Louis, MO) supplemented with 20% Leibovitz's L-15 (ThermoFisher #11415-064, Waltham, MA), 2% heat inactivated fetal bovine serum (ThermoFisher, #A3840001, Waltham, MA), 5 μg/mL Insulin (Bovine Pancreas) (Sigma, #10516, St. Louis, MO), 1.68 mM Calcium Chloride (Sigma, #C-34006, St. Louis, MO) and 1% Penicillin/Streptomycin/L-Glutamine (ThermoFisher #10378016, Waltham, MA) at 37° C., 5% CO2, and 95% humidity. Cells are expanded until reaching 70-95% confluency at which point they are sub-cultured or harvested for assay use. Using the Beckman Coulter Echo 650, a serial dilution of test compound is dispensed into a 384-well black clear bottom plate in triplicate. Seven hundred fifty cells are added per well in 50 μL complete growth medium in the 384-well plate. Plates are incubated for 67-72 hours at 37° C., 5% CO2, and 95% humidity. At the end of the incubation, 10 μL of a 440 μM solution of resazurin (Sigma, #199303, St. Louis, MO) in PBS is added to each well of the plate and plates are incubated for an additional 3-6 hours at 37° C., 5% CO2, and 95% humidity. Plates are read on a Synergy2 or equivalent reader (Biotek, Winooski VT) using an excitation of 540 nm and an emission of 600 nm. Data is analyzed using Prism software (GraphPad, San Diego, CA) to calculate IC50 values.

B-Raf (V600E) (SEQ. ID NO: 4) kinase, sequence (P15056 416-766 V600E): as the sequence (P15056 416-766) above, with V185E counted along it

Compound	IC50 [1]	IC50 [2]	IC50 [3]	IC50 [4]
CNC(=O)c1cc(-c2cc(-c3cc(NC(=O)c4ccnc(C(C)(C)F)c4)ccc3Cl)ccn2)ccn1 [Example 485]	≤ 100 nM	≤ 100 nM	100 to 500 nM	≤ 100 nM
Cc1ccc(NC(=O)c2ccnc(C(C)(C)F)c2)cc1-c1cnnc(-c2ccnc(C(N)=O)c2)c1 [Example 486]	100 to 500 nM	≤ 100 nM	100 to 500 nM	100 to 500 nM
CNC(=O)c1cc(-c2cc(-c3cc(NC(=O)c4ccnc(C5(F)CC5)c4)ccc3C)ccn2)ccn1 [Example 487]	≤ 100 nM	≤ 100 nM	≤ 100 nM	≤ 100 nM
Cc1ccc(NC(=O)c2ccnc(C(C)(C)F)c2)cc1-c1cc(-c2ccnc(C(N)=O)c2)ncn1 [Example 488]	100 to 500 nM	≤ 100 nM	≤ 100 nM	100 to 500 nM
[2H]C([2H])([2H])NC(=O)c1cc(-c2cc(-c3cc(NC(=O)c4ccnc(C(C)(C)F)c4)ccc3C)ccn2)ccn1 [Example 489]	≤ 100 nM	≤ 100 nM	≤ 100 nM	≤ 100 nM
Cc1ccc(NC(=O)c2ccnc(C(C)(C)F)c2)cc1-c1cc(-c2ccnc(C(N)=O)c2)ncc1F [Example 490]	100 to 500 nM	≤ 100 nM	100 to 500 nM	100 to 500 nM
CC(C)(F)c1cc(C(=O)Nc2ccc(F)c(-c3ccnc(-c4ccnc(C(N)=O)c4)c3)c2)ccn1 [Example 491]	1000 to 10000 nM	≤ 100 nM	≤ 100 nM	500 to 1000 nM
CNC(=O)c1cc(-c2cc(-c3cc(NC(=O)c4cnnc(C(C)(F)F)c4)ccc3C)ccn2)ccn1 [Example 492]	100 to 500 nM	≤ 100 nM	≤ 100 nM	100 to 500 nM
[2H]C([2H])([2H])NC(=O)c1cc(-c2cc(-c3cc(NC(=O)c4ccnc(C(C)(C)F)c4)ccc3C)cc(C)n2)ccn1 [Example 493]	≤ 100 nM	≤ 100 nM	100 to 500 nM	≤ 100 nM
CNC(=O)c1cc(-c2cc(-c3cc(NC(=O)c4ccnc(C(C)(C)F)n4)ccc3C)ccn2)ccn1 [Example 494]	1000 to 10000 nM	≤ 100 nM	100 to 500 nM	500 to 1000 nM
CNC(=O)c1cc(-c2cc(-c3cc(NC(=O)c4cnnc(C(C)(C)F)c4)ccc3C)ccn2)ccn1 [Example 495]	≤ 100 nM	≤ 100 nM	≤ 100 nM	≤ 100 nM
CNC(=O)c1cc(-c2cc(-c3cc(NC(=O)c4ccnc(C5(F)CC5)c4)ccc3C)cc(C)n2)ccn1 [Example 496]	≤ 100 nM	≤ 100 nM	100 to 500 nM	≤ 100 nM
CNC(=O)c1cc(-c2cc(-c3cc(NC(=O)c4ccnc(C(C)(C)F)c4)c(F)cc3C)ccn2)ccn1 [Example 497]	100 to 500 nM	≤ 100 nM	100 to 500 nM	100 to 500 nM
[2H]C([2H])([2H])NC(=O)c1cc(-c2cc(-c3cc(NC(=O)c4ccnc(C5(F)CC5)c4)ccc3C)cc(C)n2)ccn1 [Example 498]	100 to 500 nM	≤ 100 nM	100 to 500 nM	≤ 100 nM
CNC(=O)c1cc(-c2cc(-c3cc(NC(=O)c4ccnc(C(C)(C)F)c4)ncc3C)ccn2)ccn1 [Example 499]	≤ 100 nM	≤ 100 nM	100 to 500 nM	100 to 500 nM
Cc1ccc(NC(=O)c2cn(C)nc2C(F)(F)F)cc1-c1cncc(-c2ccnc(NC(=O)C3CC3)c2)c1 [Example 500]	1000 to 10000 nM	≤ 100 nM	≤ 100 nM	500 to 1000 nM
Cc1ccc(NC(=O)c2ccc(C(F)(F)F)cc2)cc1-c1ccnc(-c2ccnc(NC(=O)C3CC3)c2)c1 [Example 501]	100 to 500 nM	100 to 500 nM	≤ 100 nM	100 to 500 nM
Cc1ccc(NC(=O)c2cccc(C(F)(F)F)c2)cc1-c1ccnc(-c2ccnc(NC(=O)C3CC3)c2)c1 [Example 502]	≤ 100 nM	≤ 100 nM	≤ 100 nM	≤ 100 nM
Cc1ccc(NC(=O)c2cc(C(F)(F)F)ccc2F)cc1-c1ccnc(-c2ccnc(NC(=O)C3CC3)c2)c1 [Example 503]	100 to 500 nM	≤ 100 nM	≤ 100 nM	≤ 100 nM

Source: patent US12319655B2, “RAF kinase inhibitors and methods of use thereof” (Deciphera Pharmaceuticals, LLC, priority 2021, dated 2025)
